Experiments:
stem cells [1] = conditions: stem cells cultured in medium with ciprofloxacin
Experimental: Stem cells (collected from tissue donated by a hospital for non-profit patient treatment) were cultured by attaching 80% or more of the stem cells to a Dulbecco's modified Eagle's medium (DMEM) or a-MEM containing 1 to 10% FBS.
Thereafter, the cells were collected using Trypsin-EDTA, counted, seeded at 1×10^3 cells/well in a 96-well plate, and attached to the plate for 24 hours. Thereafter, ciprofloxacin (Samsung Pharmaceutical, ciprofloxacin injection) was administered according to the concentration, and then cytotoxicity was confirmed for a specific time (up to 166 hours). Next, each well was treated with Cell Counting Kit-8 (hereinafter referred to as CCK, DOJINDO, Cat. No. CK04-13) at 10 μl/well, and then cultured at 37° C. in a 5% CO2 incubator for 1 hour.
The absorbance was measured using an absorbance meter (Bio-Tek, Epoch2) and quantitatively calculated.

stem cells [2] = assay: Induction of differentiation of stem cells into chondrocytes (2D), Alcian blue staining; format: cell-based; conditions: 2D culture, induced to differentiate for 16 days
Experimental: Stem cells (collected from tissue donated by a hospital for non-profit patient treatment) were cultured by attaching 80% or more of the stem cells to a Dulbecco's modified Eagle's medium (DMEM) or a-MEM containing 1 to 10% FBS. Thereafter, the cells were collected using Trypsin-EDTA, counted, seeded at 1×10^3 cells/well in a 96-well plate, and attached to the plate for 24 hours. […] Thereafter, the stem cells induced to differentiate for 16 days were washed with DPBS and fixed with 4% paraformaldehyde for 1 hour. The completely fixed cells were stained using an Alcian blue solution (Merck, B8438) for 1 hour to 1 day. Thereafter, the cells were washed once with 1 N HCl, and then further washed three times with sterile distilled water. Finally, the washed sample was observed under a microscope.

stem cells [3] = assay: Induction of differentiation of stem cells into chondrocytes (3D), Alcian blue staining; format: cell-based; conditions: 3D culture, 0.1 to 6 μM ciprofloxacin, 16 days
Experimental: Stem cells (collected from tissue donated by a hospital for non-profit patient treatment) were cultured by attaching 80% or more of the stem cells to a Dulbecco's modified Eagle's medium (DMEM) or a-MEM containing 1 to 10% FBS. Thereafter, the cells were collected and counted using Trypsin-EDTA, and 5×10^5 cells were inoculated into a 15 ml conical tube. A medium containing 0.1 to 6 μM ciprofloxacin was centrifuged to settle the cells at 150 g using a centrifuge (Hanil Science Co., Ltd., Combi415). The cells were cultured in a 5% CO2 incubator at 37° C. while exchanging the medium every 2 to 3 days. The stem cells induced to differentiate for 16 days were washed with DPBS and fixed with 4% paraformaldehyde for 1 hour. The completely fixed cells were stained using an Alcian blue solution (Merck, B8438) for 1 hour to 24 hours. Thereafter, the cells were washed once with 1 N HCl, and then further washed three times with sterile distilled water. Finally, the washed sample was observed.

## O=C(O)c1cn(C2CC2)c2cc(N3CCNCC3)c(F)cc2c1=O [ciprofloxacin]
Stem cells [1]
  cell viability compared to a control (CONT): a significant difference in cell viability was not exhibited
Stem cells [2]
  differentiation into chondrocytes, Alcian blue staining (2D): Alcian blue staining, which appears depending on SOX9, was present throughout the chondrocytes
Stem cells [3]
  differentiation into chondrocytes, Alcian blue staining (3D): Alcian blue staining, which appears depending on SOX9, was present throughout the chondrocytes

— patent US20240376433A1, “STEM CELL INDUCTION INTO PRECHONDROCYTES AND DIFFERENTIATION INTO CHONDROCYTES BY CIPROFLOXACIN” (SMART CELL LAB CO., LTD., priority 2021, published 2024)
